Results from patent US20230024778A1, “STRIGOLACTONE RECEPTOR INHIBITOR, AGRICULTURAL COMPOSITION AND USE THEREOF, STRIGA SEED GERMINATION INHIBITOR, AND TRIAZOLE UREA COMPOUND” (The University of Tokyo, priority 2017, published 2023).

Test system: seeds of Striga (Striga hermonthica)
Assay: Germination inhibition test of Striga seeds
Format: in vivo
Procedure: The coadministration of the GR24 or the GR24 and the compound 25 was performed on seeds of Striga (Striga hermonthica) pretreated for one week at 30° C. The GR24 treatment was performed with 0.1 μM, and the compound 25 treatment was performed with 50 μM or 100 μM.

## CC1=CC(O/C=C2/C(=O)O[C@@H]3c4ccccc4C[C@H]23)OC1=O (some centres unmarked) [GR24]
GR24 0.1 μM added
  germination of the Striga seeds: germination of the Striga seeds is accelerated
GR24 0.1 μM alone, compound 25 0 μM
  Germination rate of striga seed: 30.92%
